Publication PMC10517971, “An inverse agonist of orphan receptor GPR61 acts by a G protein-competitive allosteric mechanism” (Nature Communications, 2023)

Experiments:
Human PDE8B = Human PDE8B (Homo sapiens, UniProt O95263); assay: Phosphodiesterase Assay (SPA); assay type: biochemical
Cav1.2 = Cav1.2 (Homo sapiens, UniProt Q13936); assay: cell-based
Text: 105 hERG, Nav1.5 and Cav1.2 Ion Channel Profiling
106 Ionic curr ents wer e evalu ated in the whole-cell con figuration using the Qube384 automated planar
107 patch clamp platform (Sophion Bioscience A/S, Ballerup, Denmark). […]
113 experiments, the ext ernal solution was composed of (in mM): 137.9 NaCl, 5.3 KCl, 0.49 MgCl2,
115 mOsM. The internal solution contained (in mM ): 27 CF, 112 CsCl, 2 MgCl2, 10 EGTA, 10
116 HEPES, 2 Na2ATP, pH 7.2, 305 mOsM. […]
123 at a rate of 0.05 Hz. Peak hERG current was measured during the ramp. The Cav1.2 current was
124 elicited by a voltage step to 0 mV for 150 ms from a holding potential of -40 mV. Voltage steps
125 were repeated at 0.05 Hz, and Cav1.2 amplitude was measured as the peak current at 0 mV. For
126 Nav1.5 current, from a holding potential of - 80 mV, a 200 ms prepulse to - 120 mV was used to
127 homogenize channel inactivation, followed by a 40 ms step to a test potential of - 15 mV.
128 Membrane potential was further depolarized to +40 mV for 200 ms to completely inactivate the
129 peak Nav1.5 current, followed by a ramp from +40 mV to - 80 mV (-1.2 mV/ms). This voltage
130 pattern was repeated at 0.1 Hz, with peak Nav1.5 defined as the maximum current during the step
131 to - 15 mV. All studies were conducted at 23° C.
132 Compounds were dissol ved and initially diluted in dimethyl sulfoxide (DMSO), with a final
133 dilution in external solution to generate final working concent rations. The final DMSO
134 concentration in all experiments was 0.33% (v/v).
135 For all protocols three vehicle periods each lasting 5 minutes were applied to establish a stable
136 baseline. For the standard protocol this was followed by the addition of increasing concentrations
137 of test compound, with each exposure lasting 5 minutes. For the “extended” protocol following
138 the three- vehi cle additional each well subsequentl y received a single concentration of compound.
139 This application was repeated three times for each well, via a flowthrough addition where the
140 solution was replaced wi th the same compound concentration with each addition. Each exposure
142 Patch clamp data were analyzed using Assay Software 6.4.72 (Sophion Bioscience A/S, Ballerup,
143 Denmark). Current amplitudes were determined by averaging the last 4 currents under each test
144 condition. The percentage inhibition of each compound was determined by taking the ratio of
145 current amplitude measured in the presence of various concentrations of the test compound
146 (ICompound) versus the vehicle control current (IVehicle):
148 A dose-response curve was generat ed and fit to the Hill equation by the Sophion Analyzer software
149 to determine an IC50 value for each compound. The minimum and the slope of the fit were free
150 fitted, with the top being fixed to 100% inhibition. […]

Chain of Cav1.2 (Q13936 whole entry): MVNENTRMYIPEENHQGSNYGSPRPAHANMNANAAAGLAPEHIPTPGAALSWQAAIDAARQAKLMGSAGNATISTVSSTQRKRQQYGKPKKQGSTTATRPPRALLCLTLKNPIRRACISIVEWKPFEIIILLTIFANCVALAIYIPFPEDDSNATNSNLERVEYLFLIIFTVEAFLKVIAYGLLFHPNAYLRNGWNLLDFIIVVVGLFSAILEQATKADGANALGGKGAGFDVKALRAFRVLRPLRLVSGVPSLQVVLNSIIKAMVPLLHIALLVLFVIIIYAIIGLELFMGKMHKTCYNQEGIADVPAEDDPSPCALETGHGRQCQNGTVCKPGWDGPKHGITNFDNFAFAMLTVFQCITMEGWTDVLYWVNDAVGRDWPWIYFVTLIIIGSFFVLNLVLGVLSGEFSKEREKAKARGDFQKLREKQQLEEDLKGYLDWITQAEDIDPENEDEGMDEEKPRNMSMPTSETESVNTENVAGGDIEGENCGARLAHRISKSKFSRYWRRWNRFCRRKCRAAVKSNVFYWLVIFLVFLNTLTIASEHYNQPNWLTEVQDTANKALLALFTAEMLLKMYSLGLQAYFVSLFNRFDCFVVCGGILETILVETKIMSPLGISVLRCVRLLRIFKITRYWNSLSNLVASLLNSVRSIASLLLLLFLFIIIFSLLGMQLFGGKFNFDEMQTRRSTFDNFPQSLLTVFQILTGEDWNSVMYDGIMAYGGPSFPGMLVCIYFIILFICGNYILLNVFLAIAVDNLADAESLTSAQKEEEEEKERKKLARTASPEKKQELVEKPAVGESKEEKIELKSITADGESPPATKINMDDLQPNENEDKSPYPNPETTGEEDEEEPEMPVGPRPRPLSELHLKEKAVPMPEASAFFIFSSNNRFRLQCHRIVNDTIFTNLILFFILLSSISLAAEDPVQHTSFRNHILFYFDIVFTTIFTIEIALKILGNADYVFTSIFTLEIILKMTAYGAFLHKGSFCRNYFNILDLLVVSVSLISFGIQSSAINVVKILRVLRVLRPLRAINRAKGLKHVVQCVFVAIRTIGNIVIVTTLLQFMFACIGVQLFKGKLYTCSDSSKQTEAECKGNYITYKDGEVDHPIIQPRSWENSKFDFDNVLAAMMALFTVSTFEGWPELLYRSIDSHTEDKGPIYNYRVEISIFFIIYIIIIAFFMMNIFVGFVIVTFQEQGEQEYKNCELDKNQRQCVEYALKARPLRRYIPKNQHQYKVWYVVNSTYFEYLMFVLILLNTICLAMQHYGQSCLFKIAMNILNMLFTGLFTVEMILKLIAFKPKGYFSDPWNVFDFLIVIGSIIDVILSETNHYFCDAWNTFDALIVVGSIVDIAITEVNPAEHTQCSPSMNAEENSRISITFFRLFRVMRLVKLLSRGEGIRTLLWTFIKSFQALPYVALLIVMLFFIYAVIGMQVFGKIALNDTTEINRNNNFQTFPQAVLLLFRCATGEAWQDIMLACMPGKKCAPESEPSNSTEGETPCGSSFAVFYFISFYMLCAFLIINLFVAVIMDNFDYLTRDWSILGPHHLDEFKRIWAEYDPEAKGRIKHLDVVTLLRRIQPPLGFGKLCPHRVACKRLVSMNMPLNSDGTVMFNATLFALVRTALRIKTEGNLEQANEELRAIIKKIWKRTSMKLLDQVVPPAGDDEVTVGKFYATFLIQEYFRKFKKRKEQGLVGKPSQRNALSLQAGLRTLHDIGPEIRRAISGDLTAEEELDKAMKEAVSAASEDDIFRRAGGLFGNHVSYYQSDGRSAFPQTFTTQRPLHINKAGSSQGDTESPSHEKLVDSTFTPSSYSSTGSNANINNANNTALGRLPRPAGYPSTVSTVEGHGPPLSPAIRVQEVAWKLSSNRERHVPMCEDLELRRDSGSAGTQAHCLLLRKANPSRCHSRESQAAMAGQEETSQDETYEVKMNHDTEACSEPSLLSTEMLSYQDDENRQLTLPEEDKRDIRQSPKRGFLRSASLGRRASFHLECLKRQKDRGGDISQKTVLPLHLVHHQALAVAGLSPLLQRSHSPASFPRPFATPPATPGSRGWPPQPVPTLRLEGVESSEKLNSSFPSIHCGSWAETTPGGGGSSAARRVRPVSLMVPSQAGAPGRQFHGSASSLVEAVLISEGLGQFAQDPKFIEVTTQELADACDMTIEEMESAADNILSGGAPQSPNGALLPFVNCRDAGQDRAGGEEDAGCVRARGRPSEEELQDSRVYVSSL
Chain of Cav1.2 (Q08289 whole entry partner): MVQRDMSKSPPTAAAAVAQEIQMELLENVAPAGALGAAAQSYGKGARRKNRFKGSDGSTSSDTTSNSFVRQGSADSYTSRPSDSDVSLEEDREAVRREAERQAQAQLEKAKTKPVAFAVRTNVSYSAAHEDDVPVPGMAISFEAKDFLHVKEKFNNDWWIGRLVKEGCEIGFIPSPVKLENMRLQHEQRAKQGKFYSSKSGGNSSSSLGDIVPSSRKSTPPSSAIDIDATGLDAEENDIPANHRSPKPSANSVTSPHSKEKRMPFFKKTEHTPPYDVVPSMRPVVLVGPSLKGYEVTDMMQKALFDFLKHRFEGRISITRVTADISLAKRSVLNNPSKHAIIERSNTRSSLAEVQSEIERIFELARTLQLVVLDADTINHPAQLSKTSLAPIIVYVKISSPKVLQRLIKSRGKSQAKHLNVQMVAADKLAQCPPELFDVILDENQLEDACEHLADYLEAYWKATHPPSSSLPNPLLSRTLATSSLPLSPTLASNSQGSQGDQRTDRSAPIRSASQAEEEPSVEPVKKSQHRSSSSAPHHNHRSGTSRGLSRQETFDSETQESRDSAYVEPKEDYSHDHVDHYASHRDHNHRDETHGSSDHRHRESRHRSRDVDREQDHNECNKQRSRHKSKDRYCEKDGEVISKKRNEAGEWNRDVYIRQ
Chain of Cav1.2 (P54289 25-956 partner limits assumed): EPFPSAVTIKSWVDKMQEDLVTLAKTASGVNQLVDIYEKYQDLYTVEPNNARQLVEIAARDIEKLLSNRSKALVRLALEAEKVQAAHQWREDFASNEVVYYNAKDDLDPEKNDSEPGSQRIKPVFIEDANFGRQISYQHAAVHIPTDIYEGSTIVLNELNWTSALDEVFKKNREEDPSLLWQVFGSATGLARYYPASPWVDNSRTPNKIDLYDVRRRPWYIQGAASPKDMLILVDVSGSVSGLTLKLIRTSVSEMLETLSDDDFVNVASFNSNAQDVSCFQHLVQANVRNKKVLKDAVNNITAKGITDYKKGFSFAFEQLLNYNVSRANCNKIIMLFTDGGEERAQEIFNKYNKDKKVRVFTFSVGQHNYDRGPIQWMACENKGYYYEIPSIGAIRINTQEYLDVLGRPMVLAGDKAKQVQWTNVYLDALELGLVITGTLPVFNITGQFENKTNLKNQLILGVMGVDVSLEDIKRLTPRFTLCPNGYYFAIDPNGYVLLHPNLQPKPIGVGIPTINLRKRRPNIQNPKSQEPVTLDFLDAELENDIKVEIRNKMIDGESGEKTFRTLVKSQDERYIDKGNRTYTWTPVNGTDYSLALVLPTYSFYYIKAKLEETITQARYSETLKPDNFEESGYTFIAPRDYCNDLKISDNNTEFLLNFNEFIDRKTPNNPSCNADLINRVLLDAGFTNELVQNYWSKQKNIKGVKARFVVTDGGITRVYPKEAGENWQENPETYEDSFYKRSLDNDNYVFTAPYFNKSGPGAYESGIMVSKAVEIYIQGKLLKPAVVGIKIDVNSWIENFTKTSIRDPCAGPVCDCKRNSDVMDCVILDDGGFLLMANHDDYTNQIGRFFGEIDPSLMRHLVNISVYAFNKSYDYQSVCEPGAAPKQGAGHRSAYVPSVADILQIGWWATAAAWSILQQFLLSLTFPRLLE
Chain of Cav1.2 (P54289 957-1103 partner limits assumed): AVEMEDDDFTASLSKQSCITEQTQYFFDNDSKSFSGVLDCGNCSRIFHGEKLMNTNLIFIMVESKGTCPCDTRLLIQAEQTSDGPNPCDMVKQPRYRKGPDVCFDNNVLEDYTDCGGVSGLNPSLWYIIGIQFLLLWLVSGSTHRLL
Chain of Human PDE8B (O95263 whole entry): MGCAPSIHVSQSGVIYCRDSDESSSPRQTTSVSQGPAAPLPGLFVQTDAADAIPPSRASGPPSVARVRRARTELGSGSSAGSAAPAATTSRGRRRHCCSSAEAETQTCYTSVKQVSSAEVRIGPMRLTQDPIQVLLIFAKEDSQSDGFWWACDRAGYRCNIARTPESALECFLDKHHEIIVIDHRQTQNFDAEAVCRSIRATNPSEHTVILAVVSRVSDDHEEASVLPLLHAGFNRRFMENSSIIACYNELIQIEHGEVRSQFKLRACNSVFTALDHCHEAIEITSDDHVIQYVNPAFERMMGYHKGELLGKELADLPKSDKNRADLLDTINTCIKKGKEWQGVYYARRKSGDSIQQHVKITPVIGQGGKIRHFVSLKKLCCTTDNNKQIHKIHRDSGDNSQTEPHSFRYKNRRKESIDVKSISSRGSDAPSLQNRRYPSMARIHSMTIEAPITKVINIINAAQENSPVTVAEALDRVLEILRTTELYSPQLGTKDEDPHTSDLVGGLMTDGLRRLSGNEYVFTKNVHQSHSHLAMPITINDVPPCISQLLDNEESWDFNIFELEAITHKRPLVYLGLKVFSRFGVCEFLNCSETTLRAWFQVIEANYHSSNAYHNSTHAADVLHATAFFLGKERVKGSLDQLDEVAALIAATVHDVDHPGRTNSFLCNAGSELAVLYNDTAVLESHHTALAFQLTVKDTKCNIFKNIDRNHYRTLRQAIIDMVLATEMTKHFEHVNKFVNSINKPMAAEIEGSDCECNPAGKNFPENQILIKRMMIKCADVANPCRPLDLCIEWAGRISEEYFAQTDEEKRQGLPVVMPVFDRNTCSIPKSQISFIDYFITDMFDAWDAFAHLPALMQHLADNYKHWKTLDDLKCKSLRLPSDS

Structure (SMILES): CCOc1cc(C)nc(N(CCOC)S(=O)(=O)c2ccc(NCc3c(F)cncc3F)nc2OC)n1 [Compound 1]
- IC50 (Human PDE8B): 9.07 µM
- IC50 (Cav1.2; IC50 (nM), Calcium Channel Cav1 (so in the source), standard protocol): 44800 nM
- IC50 (Cav1.2; Ion Channel Extended Protocol IC50 (nM), Period 1st, Cav1.2, extended protocol, 1st period): 21100 nM
- IC50 (Cav1.2; Ion Channel Extended Protocol IC50 (nM), Period 2nd, Cav1.2, extended protocol, 2nd period): 10700 nM
- IC50 (Cav1.2; Ion Channel Extended Protocol IC50 (nM), Period 3rd, Cav1.2, extended protocol, 3rd period): 5930 nM
